The source of these data is patent EP0004835A1, “Ethanolamine compounds, processes for their preparation, pharmaceutical preparations containing them and their medicinal use” (priority 1978, dated 1979).

The test system of assay [1] is histamine induced bronchospasm. Put plainly: Bronchospasmolytic effect in anaesthetized cat (simultaneous recording). As to conditions: narcotized cat, i.v. (brachial vein); based on molar dose giving 30 % decrease of histamine induced bronchospasm; terbutaline = 1; hydrochloride. Type of assay: in vivo. The protocol:
A. Simultaneous recording of bronchospasmolytic effect, tremorogenic effect and heart stimulating effect
The bronchospasmolytic effect and the tremorogenic effect were measured simultaneously in anaesthetized cat.
The method used is described in detail by 0 A T Olsson, Acta pharmacol et toxicol 34, 106-114 (1974).
Cats weighing 2.5-3.5 kg are anaesthetized with pento- barbital (mebumalum NFN) at first by an intraperitoneal injection (30 mg/kg) and afterwards by continuous intravenous infusion to keep the level of anaesthesia constant during the experiment.
The trachea is cannulated and the lungs inflated with room air by means of a constant volume Braun-respirator. The frequency is 15-20 per min and the tidal volume 8-10 ml per kg, or just sufficient to suppress spontaneous breathing movements and to give about 150 ml/kg/min. The change in tidal volume from administered constricting agents is measured as the amount of air overflow from the delivery of a constant volume to a fixed respiration. The pressure is determined by a water (60-70 mm) pressure threshold and respiratory overflow determined by means of a Grass-volumetric pressure transducer PT 5A. Bronchial tone is increased by inhalation of a histamine aerosol generated in a Roth-Petersen nebulizer from a solution containing 0.1-0.3 mg/ml of histamine and made up to 5 % by glycerol. The nebulizer is connected to the inlet of the respirator when bronchospasm is to be produced. When the respiratory overflow has reached an even level, .the compound to be tested for bronchorealxing activity is injected into the brachial vein.
The bronchospasmolytic effect is measured as the dose, calculated in moles per kg bodyweight of the test animal, which gives 30 % decrease of the histamine induced bronchospasm. […] The heart stimulating effect is measured as the dose, calculated in moles per kg bodyweight of the test animal, which gives 25 % increase in the heart frequency.

The target in a further assay is rat uterus (Rattus norvegicus, UniProt P10608). Briefly: Inhibitory activity on oxytocin and carbachol induced contractions of rat uterus in vitro. As to conditions: result in words. Details: species or system Sprague-Dawley rats. The protocol:
'The uterus relaxing effect of the compounds of the invention was tested. Terbutaline was used as reference substance.
Female Sprague-Dawley rats, 150-200 g, were used. An oestrogen steroid (Estradurin, Leo), 0.25 mg/100 g, was administered s.c. 4-6 days before the experiments to bring the animals in oesterus.
The uterus horn were cut open longitudinally, mounted in organ baths in Locke solution at 33°C and gassed with carbogen. The contraction of the preparation was producted by oxytocin (Partocon, Ferring) or carbachol and given to the bath 3 min after administration of the test substance in a dose producing 70-80 % of the maximum contraction or 0.005-0.02 IE/ml of oxytocin and 0.2-0.6 µg/ml of carbacho- line chloride. The inhibitory effect produced by the test substance was eliminated by propranolol (1 µg/ml or 0.4x10^-5 M given to the bath 15 minutes before the drugs).
The tension changes were recorded isometrically (transducer FP03 and Grass polygraph P5).
The results are given as the concentration of the test compound which reduces the contraction induced by oxytocin and carbachol, respectively, by 50 % (EC 50).
Oxytocinseries: 10 preparations from 6 animals Carbacholseries: 9 preparations from 5 animals

Chain of rat uterus (P10608 whole entry): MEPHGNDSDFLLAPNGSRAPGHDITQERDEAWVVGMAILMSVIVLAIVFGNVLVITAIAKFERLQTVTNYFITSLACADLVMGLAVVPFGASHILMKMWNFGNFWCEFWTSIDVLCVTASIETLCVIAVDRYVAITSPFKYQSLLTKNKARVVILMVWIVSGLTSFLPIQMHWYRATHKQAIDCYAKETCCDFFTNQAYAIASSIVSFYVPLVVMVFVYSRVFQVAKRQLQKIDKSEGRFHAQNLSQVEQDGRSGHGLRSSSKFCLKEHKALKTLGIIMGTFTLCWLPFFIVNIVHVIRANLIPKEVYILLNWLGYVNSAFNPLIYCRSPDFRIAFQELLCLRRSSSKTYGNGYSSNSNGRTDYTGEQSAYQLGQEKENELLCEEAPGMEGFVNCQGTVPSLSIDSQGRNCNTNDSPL

Regarding `COc1ccccc1CCC(C)(C)NCC(O)c1ccc(O)cc1.Cl` (centres unmarked) [D 2343, 1-(4-hydroxyphenyl)--2-[1,1-dimethyl-3-(2-methoxyphenyl)propylamino]-ethanol hydrochloride], the “Bronchospasmolytic effect in relation to the bronchospasmolytic effect of terbutaline” value in assay [1] is 2.9 ±0.6. Besides, on rat uterus, the “potency as uterus relaxing agent compared with terbutaline” value is “more potent as uterus relaxing agent than terbutaline”.
